Paper PMC7464159, “Triple Negative Breast Cancer and Breast Epithelial Cells Differentially Reprogram Glucose and Lipid Metabolism upon Treatment with Triterpenic Acids” (Biomolecules, 2020)

How the values were obtained:
MCF-10A cells [1] = experiment: 1H NMR analysis of culture medium supernatants (exometabolome); type: cell-based, human
Experimental: MDA-MB-231 and MCF-10A cells were seeded in 10-cm-diameter Petri dishes at a density of 6 × 10^5 cells/mL (10 mL per dish) and cultured for 24 h at 37 °C. Cells were then incubated for 48 h with BA (5 and 15 µM) or UA (10 and 20 µM). Vehicle solvent control cells received DMSO (0.10% v/v). Samples were collected immediately after 48 h incubation or, to assess cellular recovery, medium was replaced with fresh growth medium (without TAs), and cells were incubated for additional 24 h before collection (48 + 24 h samples). Four independent assays were performed.
After incubation, culture medium was collected and centrifuged (1000× g, 5 min) and the supernatant stored at −80 °C until analysis. Culture medium without cells was placed under the same conditions and collected. Cell extraction was performed as described by Carrola et al.. Briefly, cells were washed four times with PBS and extracted with a mixture of methanol:chloroform:water (1:1:0.7). The resulting polar and organic phases were collected and then dried under vacuum or under a stream of nitrogen gas, respectively. All samples were stored at −80 °C and, at the time of analysis, dried polar extracts were reconstituted in 600 µL of deuterated phosphate buffer (100 mM, pH 7.4) containing 0.1 mM TSP-d4, while organic extracts were reconstituted in deuterated chloroform containing 0.03% TMS. Regarding medium samples, 540 μL were mixed with 60 μL of D2O containing 0.25% TSP-d4. Prior to analysis, 550 μL of each sample were transferred to 5 mm NMR tubes.
^1H NMR spectra of all samples were acquired on a Bruker Avance III HD 500 NMR spectrometer (University of Aveiro, Portuguese NMR Network) operating at 500.13 MHz for ^1H observation equipped with a 5 mm TXI probe. Standard 1D spectra (Bruker pulse programs ‘noesypr1d’, with water suppression, for medium samples and aqueous extracts, and ‘zg’ for organic extracts) were recorded with a 7002.8 Hz spectral width, 32 k data points, a 2 s relaxation delay and 512 scans. Spectral processing comprised exponential multiplication with 0.3 Hz line broadening, zero filling to 64 k data points, manual phasing, baseline correction, and chemical shift calibration to the TSP or TMS signal at 0 ppm. 2D ^1H-^1H total correlation (TOCSY) spectra, ^1H-^13C heteronuclear single quantum correlation (HSQC) spectra and J-resolved spectra were also registered for selected samples to assist spectral assignment. Metabolites were identified with the support of 2D spectra and the spectral reference databases BBIOREFCODE-2-0-0 (Bruker Biospin, Rheinstetten, Germany) and HMDB [28]. Selected signals were then integrated using the AmixViewer software […] (version 3.9.14, Bruker BioSpin, Rheinstetten, Germany) and normalized by the total spectral area. The magnitude of each metabolite change was assessed through the percentage of variation (and its respective error) in exposed samples relatively to controls, and through the effect size (ES) adjusted for small sample numbers (and respective standard error). Metabolite variations with absolute ES greater than 0.8 were expressed in a heatmap, colored as a function of the percentage of variation, employing the R statistical software.

MDA-MB-231 cells = system: MDA-MB-231 cells; set-up: method as in PMID 22407812; conditions: BA 2.5–10 μM, 48 h; cited from earlier work
MCF-10A cells [2] = system: MCF-10A cells; set-up: method as in PMID 29802332, PMID 30684465; conditions: previous studies; cited from earlier work

| Structure (SMILES) | consumption of glucose and pyruvate (MCF-10A cells [1]; 48 h) | excretion of lactate (MCF-10A cells [1]; 48 h) | consumption of several amino acids (MCF-10A cells [1]; UA, 48 h) | cell cycle effect (MDA-MB-231 cells) | consumption of glucose, pyruvate and acetate (MCF-10A cells [1]; BA, 48 + 24 h) | formate excretion (MCF-10A cells [1]; BA, 48 + 24 h) | consumption of several amino acids (BCAA, glutamine, phenylalanine, tyrosine) (MCF-10A cells [1]; BA, 48 h) | excretion of alanine and fumarate (MCF-10A cells [1]; BA, 48 h) | influence on MCF-10A cells viability (MCF-10A cells [2]) |
| --- | --- | --- | --- | --- | --- | --- | --- | --- | --- |
| C[C@H]1[C@H](C)CC[C@]2(C(=O)O)CC[C@]3(C)C(=CC[C@@H]4[C@@]5(C)CC[C@H](O)C(C)(C)[C@@H]5CC[C@]43C)[C@H]12 [UA, ursolic acid] | increasing the consumption | increasing | decreased | – | – | – | – | – | – |
| C=C(C)[C@@H]1CC[C@]2(C(=O)O)CC[C@]3(C)[C@H](CC[C@@H]4[C@@]5(C)CC[C@H](O)C(C)(C)[C@@H]5CC[C@]43C)[C@@H]12 [BA, betulinic acid] | consumed more | excreting more | – | cell cycle arrest at G2/M phase | decreased | increased | significantly reduced | decreased excretion | no influence |
